Tests used:
Assay type in all cases: in vivo
[1] = tested on: Amaranthus retoflexus (AMARE); experiment: Pre-emergence biological efficacy, glasshouse pot test; conditions: Amaranthus retroflexus, 312 h; pre-emergence, 1,000 g/ha, evaluated after 13 days (100=total damage; 0=no damage); read-out: Percentage damage AMARE
How it was run: (§1)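 Standard soil, pots, sown then sprayed at day 1 with 1000 or 250 g/ha test compound. Glasshouse: 24/16 °C, 14 h photoperiod, 65% humidity, twice-daily watering. Evaluation day 13, 0–100 damage score.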

Setaria faberi (SETFA) [2] = experiment: as above; conditions: 312 h, pre-emergence, 1,000 g/ha, evaluated after 13 days (100=total damage; 0=no damage), read-out: Percentage damage SETFA
How it was run: as §1

[3] = tested on: Echinochloa crus-galli (ECHCG); experiment: as above; conditions: 312 h, pre-emergence, 1,000 g/ha, evaluated after 13 days (100=total damage; 0=no damage), read-out: Percentage damage ECHCG
How it was run: as §1

Solanum nigrum (SOLNI) [4] = experiment: as above; conditions: 312 h, pre-emergence, 1,000 g/ha, evaluated after 13 days (100=total damage; 0=no damage), read-out: Percentage damage SOLNI
How it was run: as §1

[5] = tested on: Ipomea hederaceae (IPOHE); experiment: as above; conditions: Ipomoea hederacea, 312 h; pre-emergence, 1,000 g/ha, evaluated after 13 days (100=total damage; 0=no damage); read-out: Percentage damage IPOHE
How it was run: as §1

[6] = tested on: Alopecurus myosuroides (ALOMY); experiment: as above; conditions: 312 h, pre-emergence, 1,000 g/ha, evaluated after 13 days (100=total damage; 0=no damage), read-out: Percentage damage ALOMY
How it was run: as §1

[7] = tested on: Amaranthus retoflexus (AMARE); experiment: Post-emergence biological efficacy, glasshouse pot test; conditions: Amaranthus retroflexus, 312 h; post-emergence, 1,000 g/ha, evaluated after 13 days (100=total damage; 0=no damage); read-out: Percentage damage caused to weed species, AMARE
How it was run: (§2)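 Scored 13 days after spraying on a 0 (no damage) to 100 (total damage) scale. Treatment was a post-emergence spray at 1000 or 250 g/ha, from acetone/water 50:50 plus 0.5% Tween 20, onto 8-day-old plants in soil pots. Growth at 24/16° C, 14 h photoperiod, 65% humidity, watered twice daily.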

Setaria faberi (SETFA) [8] = experiment: as above; conditions: 312 h, post-emergence, 1,000 g/ha, evaluated after 13 days (100=total damage; 0=no damage), read-out: Percentage damage caused to weed species, SETFA
How it was run: as §2

[9] = tested on: Echinochloa crus-galli (ECHCG); experiment: as above; conditions: 312 h, post-emergence, 1,000 g/ha, evaluated after 13 days (100=total damage; 0=no damage), read-out: Percentage damage caused to weed species, ECHCG
How it was run: as §2

Solanum nigrum (SOLNI) [10] = experiment: as above; conditions: 312 h, post-emergence, 1,000 g/ha, evaluated after 13 days (100=total damage; 0=no damage), read-out: Percentage damage caused to weed species, SOLNI
How it was run: as §2

[11] = tested on: Ipomea hederaceae (IPOHE); experiment: as above; conditions: Ipomoea hederacea, 312 h; post-emergence, 1,000 g/ha, evaluated after 13 days (100=total damage; 0=no damage); read-out: Percentage damage caused to weed species, IPOHE
How it was run: as §2

[12] = tested on: Alopecurus myosuroides (ALOMY); experiment: as above; conditions: 312 h, post-emergence, 1,000 g/ha, evaluated after 13 days (100=total damage; 0=no damage), read-out: Percentage damage caused to weed species, ALOMY
How it was run: as §2

Row | SMILES | pest or weed control at 1000 g/ha [1] [%] | pest or weed control at 1000 g/ha (Setaria faberi (SETFA) [2]) [%] | pest or weed control at 1000 g/ha [3] [%] | pest or weed control at 1000 g/ha (Solanum nigrum (SOLNI) [4]) [%] | pest or weed control at 1000 g/ha [5] [%] | pest or weed control at 1000 g/ha [6] [%] | pest or weed control at 1000 g/ha [7] [%] | pest or weed control at 1000 g/ha (Setaria faberi (SETFA) [8]) [%] | pest or weed control at 1000 g/ha [9] [%] | pest or weed control at 1000 g/ha (Solanum nigrum (SOLNI) [10]) [%] | pest or weed control at 1000 g/ha [11] [%] | pest or weed control at 1000 g/ha [12] [%]
1 | O=C(O)c1nc(C2CC2)nc(NC2CC2)c1Cl [Compound 1-1, 5-Chloro-2-cyclopropyl-4-cyclopropylamino-pyrimidine-6-carboxylic acid] | 100 | 0 | 20 | 90 | 90 | 20 | 100 | 80 | 40 | 90 | 80 | 40
2 | O=C(O)c1nc(C2CC2)nc(NC2CCCC2)c1Cl [Compound 1-33, 5-Chloro-2-cyclopropyl-4-cyclopentylamino-pyrimidine-6-carboxylic acid] | 80 | 50 | 30 | 80 | 70 | 30 | 100 | 80 | 20 | 80 | 70 | 30
3 | O=C(O)c1nc(C2CC2)nc(NC2CCCCC2)c1Cl [Compound 1-35, 5-Chloro-4-cyclohexylamino-2-cyclopropyl-pyrimidine-6-carboxylic acid] | 50 | 0 | 10 | 20 | 0 | 10 | 50 | 0 | 10 | 30 | 50 | 10
4 | O=C(O)c1nc(C2CC2)nc(NCc2ccccc2)c1Cl [Compound 1-60, 5-Chloro-2-cyclopropyl-4-phenylmethyamino pyrimidtne-6-carboxylic acid] | 90 | 0 | 20 | 90 | 100 | 20 | 100 | 90 | 70 | 90 | 100 | 50
5 | O=C(O)c1nc(C2CC2)nc(NCc2ccc(F)cc2)c1Cl [Compound 1-66, 5-Chloro-2-cyclopropyl-4-(4-fluorophenylmethyl-amino)pyrimidine-6-carboxylic acid] | 50 | 10 | 10 | 60 | 90 | 10 | 100 | 80 | 50 | 90 | 80 | 10
6 | Cc1ccc(CNc2nc(C3CC3)nc(C(=O)O)c2Cl)cc1 [Compound 1-73, 5-Chloro-2-cyclo-propyl-4-(4-methyl-phenylmethyl-amino)pyrimidine-6-carboxylic acid] | 70 | 30 | 10 | 80 | 60 | 10 | 100 | 50 | 30 | 80 | 80 | 10
7 | O=C(O)c1nc(C2CC2)nc(NCc2c(Cl)cccc2Cl)c1Cl [Compound 1-104, 5-Chloro-2-cyclopropyl-4-(2,6-dichlorophenyl-methylamino)-pyrimidine-6-carboxylic acid] | 0 | 0 | 0 | 0 | 0 | 0 | 60 | 0 | 0 | 50 | 60 | 0
8 | COc1ccc(CNc2nc(C3CC3)nc(C(=O)O)c2Cl)c(OC)c1 [Compound 1-110, 5-Chloro-2-cyclopropyl-4-(2,4-dimethoxyphenyl-methylamino)-pyrimidine-6-carboxylic acid] | 100 | 30 | 20 | 60 | 90 | 40 | 100 | 80 | 50 | 80 | 80 | 30
9 | Cc1ccc(CNc2nc(C3CC3)nc(C(=O)O)c2Cl)o1 [Compound 1-135, 5-Chloro-2-cyclopropyl-4-(5-methylfuran-2-ylmethylamino)-pyrimidine-6-carboxylic acid] | 100 | 90 | 90 | 100 | 100 | 80 | 100 | 80 | 70 | 100 | 100 | 80
10 | Cc1cccnc1CNc1nc(C2CC2)nc(C(=O)O)c1Cl [Compound 1-153, 5-Chloro-2-cyclopropyl-4-(3-methylpyridin-2-ylmethylamino)-pyrimidine-6-carboxylic acid] | 100 | 70 | 50 | 90 | 100 | 40 | 100 | 90 | 60 | 90 | 70 | 50
11 | CC(Nc1nc(C2CC2)nc(C(=O)O)c1Cl)c1ccc(Cl)cc1 (stereo not drawn) [Compound 1-176, 5-Chloro-4-[1-(4-chlorophenyl)ethyl-amino]-2-cyclopropyl-pyrimidine-6-carboxylic acid] | 0 | 0 | 0 | 0 | 0 | 0 | 40 | 20 | 10 | 60 | 40 | 10
12 | COC(=O)c1nc(C2CC2)nc(NC2CC2)c1Cl [Compound 4-1, 5-Chloro-2-cyclopropyl-4-cyclopropylamino-6-methoxycarbonyl-pyrimidine] | 100 | 60 | 50 | 100 | 90 | 40 | 100 | 80 | 60 | 100 | 90 | 60

Source: patent US20110086759A1, “CHEMICAL COMPOUNDS” (SYNGENTA CROP PROTECTION, INC., priority 2007, published 2011)
